# Assay results from US8404650B2, “Methods of treating cancer with doxazolidine and prodrugs thereof” (priority 2005, dated 2013).
# Read-outs that look alike come from different tables or passages of the source.
# Columns and labels:
# MCF-7 = assay: Growth inhibition of MCF-7 sensitive breast cancer cells (colony formation, crystal violet); type: cell-based, human; details: for IC50: Homo sapiens
# Procedure: (§1) In vitro Activity. […] This cell suspension was dispensed in 200 μL aliquots (1000 cells/well) into the inside wells of 96-well tissue culture plates. Outside wells contained 200 μL of media. […] The medium was replaced with 90 μL of growth medium prior to addition of the drug. Doxaz was dissolved in DMSO at concentrations ranging from 50 μM to 1 mM. […] Serial dilutions (1:3 and 1:10) were made in sterile DMSO to yield seven solutions of decreasing drug concentration at 100× the respective working concentrations. […] Additionally, two lanes were treated with 10 μL of growth medium containing 10% sterile DMSO and one lane was treated with 90 μL of 1.5 M Tris HCl. […]
# (§2) Cell growth inhibition experiments initially focused on MCF-7, MCF-7/Adr, SK-HEP-1, and Hep G2 cancer cells as well as rat cardiomyocytes as a measure of cardiotoxicity and Vero cells (green monkey kidney cells) as an additional measure of normal cell toxicity.
# (§3) Activity of plasmin-activated prodrugs.
# (§4) A more thorough characterization of the growth inhibition of a variety of cancer cells as well as rat cardiomyocytes by Formula IV (aFK-PABC-Doxaz) was evaluated in comparison with inhibition of growth by Doxaz, Dox and aFK-PABC-Dox. Cells were treated with drug for 3 h and colony growth was measured at 3 to 5 days when cells reached about 80% confluence. […] The breast cancer cell lines represent the multi-drug resistant (MDR) phenotype with MCF-7/Adr cells and a cell line that is transfected with the gene for urokinase plasminogen activator (uPA), the primary enzyme responsible for cleavage of plasminogen to plasmin. Rat cardiomyocytes served as a model for comparison of drug cardiotoxicity.
# MCF-7/Adr = assay: Growth inhibition of multidrug resistant MCF-7/Adr breast cancer cells (crystal violet); type: cell-based; details: for IC50: Homo sapiens, NCI/ADR-RES
# Procedure: as §1, §2, §3, §4
# DU-145 = assay: Growth inhibition of DU-145 prostate cancer cells; type: cell-based; details: for IC50: Homo sapiens
# Procedure: as §1
# (§5) SHP-77 small cell lung cancer cells were also of interest because they express modest amounts of both enzymes. Inhibition of the growth of cardiomyocytes was used as a measure of cardiotoxicity, and inhibition of the growth of Vero cells, green monkey kidney cells, was again used as another measure of toxicity to normal cells.
# as §4, with “Cells were treated with drug for 3 h and colony growth was measured at 3 to 5 days when cells reached about 80% confluence.” left out
# SK-HEP-1 = assay: Growth inhibition of SK-HEP-1 liver cancer cells; type: cell-based, human; details: for IC50: Homo sapiens, SK-HEP1
# Excerpt: (§6) Cell growth inhibition experiments initially focused on MCF-7, MCF-7/Adr, SK-HEP-1, and Hep G2 cancer cells as well as rat cardiomyocytes as a measure of cardiotoxicity and Vero cells (green monkey kidney cells) as an additional measure of normal cell toxicity. […]
# Hep G2 = assay: Growth inhibition of Hep G2 liver cancer cells; type: cell-based, human; details: for IC50: Homo sapiens, HepG2
# Excerpt: as §6
# MCF-7/Adr cells = assay: Drug uptake by MCF-7/Adr cells, flow cytometry of drug fluorescence; type: cell-based; details: for Drug uptake relative to Doxorubicin: MCF-7/Adr, 500 nM (equivalents), up to 3 h
# Procedure: Drug uptake was measured by flow cytometery. Cells were dissociated with trypsin/EDTA, counted, and suspended in growth media to a concentration of 1×10^5 cells/mL. This cell suspension was dispensed in 2.5 mL aliquots into 6-well tissue culture plates. Plates were then incubated for 24 h at 37° C. in a humidified atmosphere of 5% CO2 and 95% air. The growth media was replaced with 2 mL of fresh growth media prior to addition of the drug. Doxaz, DoxF, and Doxorubicin HCl were dissolved in DMSO each at a concentration of 50 μM. The concentration was then corrected by measuring the solution absorbance at 480 nm (ε=11,500 M^−1 cm^−1). Drug solution (20 μL) was added to an individual well and was incubated for 5 min, 15 min, 30 min, 1 h, 2 h or 3 h at 37° C. in a humidified atmosphere of 5% CO2 and 95% air. All drug treatments were performed so all treatment times would end simultaneously. After treatment, culture media was removed, cells washed once with 0.5 mL HBSS, washed once with 0.5 mL trypsin/EDTA, and 0.5 mL trypsin/EDTA was added and cells were incubated for 5 min. After all cells were trypsinized, cells were aspirated with 1.5 mL cold D-PBS (Dulbecco's phosphate buffered saline, no calcium or magnesium) and this solution was added to 3 mL of cold D-PBS (4.5 mL total D-PBS) in a conical vial. Cells were centrifuged at 200 g for 5 min, and D-PBS was decanted off. Cells were washed once more in 5 mL cold D-PBS, centrifuged at 200 g for 5 min and D-PBS was decanted off. […] Cells were analyzed with excitation at 488 nm (15 mW Ar ion laser), with emission monitored between 570 nm and 600 nm. Instrument settings were optimized for the cell line and held constant for all experiments; for the anthracycline fluorescence analysis, 10,000 cells were analyzed for each sample. The data are presented as the mean fluorescence for each condition.
# Uptake of pentyl PABC-Doxaz and Dox by multidrug resistant MCF-7/Adr breast cancer cells and SK-HEP-1 liver cancer cells in the presence of fetal bovine serum was determined by flow cytometry using drug fluorescence as a measure of drug in cells.
# MDA-MB-435 = assay: Growth inhibition of MDA-MB-435 breast cancer cells; type: cell-based; details: Homo sapiens
# Procedure: (§7) In vitro Activity. […] This cell suspension was dispensed in 200 μL aliquots (1000 cells/well) into the inside wells of 96-well tissue culture plates. Outside wells contained 200 μL of media. […] The medium was replaced with 90 μL of growth medium prior to addition of the drug. Doxaz was dissolved in DMSO at concentrations ranging from 50 μM to 1 mM. […] Serial dilutions (1:3 and 1:10) were made in sterile DMSO to yield seven solutions of decreasing drug concentration at 100× the respective working concentrations. […] Additionally, two lanes were treated with 10 μL of growth medium containing 10% sterile DMSO and one lane was treated with 90 μL of 1.5 M Tris HCl. The cells were incubated at 37° C. for 3 h, at which time the drug solutions were replaced with 200 μL of fresh growth medium.
# as §3
# Vero cells = assay: Growth inhibition of Vero cells as a measure of normal cell toxicity (MTT); type: cell-based, green monkey; details: for IC50: Chlorocebus sabaeus, Vero
# Excerpt: as §2, §5
# cancer cells = assay: Cancer cell growth inhibition, statements over several or unnamed cell lines; type: cell-based
# Procedure: as §7, §4
# [1] = read-out: IC50 value for cell growth inhibition, MCF-7/Adr
# [2] = 3 h, read-out: Growth inhibition IC50, MCF-7/Adr, 3 h
# [3] = 3 h drug treatment, crystal violet, read-out: Growth inhibition IC50, SK-HEP-1, 3 h (converted)
# [4] = 3 h drug treatment, crystal violet, read-out: Growth inhibition IC50, Hep G2, 3 h (converted)
# [5] = 3 h drug treatment, read-out: Growth inhibition IC50, Vero, 3 h (converted)
# [6] = 24 h drug treatment, read-out: Growth inhibition IC50, Vero, 24 h (converted)
# [7] = 3 h, read-out: IC50 MCF-7/Adr + plasmin
# [8] = MDA-MB-435, read-out: IC50 MDA-MB-435, top line of the cell
# [9] = DU-145, read-out: IC50 DU-145, top line of the cell
# [10] = 24 h drug treatment, crystal violet
compound,measurement,setting,value
"COc1cccc2c1C(=O)c1c(O)c3c(c(O)c1C2=O)C[C@@](O)(C(=O)CO)C[C@@H]3OC1CC2C(OCN2CN2COC3C(C)OC(O[C@H]4C[C@](O)(C(=O)CO)Cc5c(O)c6c(c(O)c54)C(=O)c4c(OC)cccc4C6=O)CC32)C(C)O1 (some centres unmarked) [DoxF, Doxoform, reference compound]",IC50,"MCF-7; MCF7, 3 h, read-out: IC50 MCF-7",0.002 µM
same,IC50,"MCF-7/Adr; 3 h, read-out: IC50 MCF-7/Adr",0.001 µM
same,IC50,MCF-7/Adr; [1],~0.002 µM
same,IC50,"DU-145; DU-145, 3 h, read-out: IC50 DU-145",0.003 µM
same,"IC50 lower than doxorubicin, SK-HEP-1",SK-HEP-1,more than 25 fold
same,"IC50 lower than doxorubicin, Hep-G2",Hep G2,more than 25 fold
same,Drug uptake relative to Doxorubicin,MCF-7/Adr cells,significantly more
"COc1cccc2c1C(=O)c1c(O)c3c(c(O)c1C2=O)C[C@@](O)(C(=O)CO)C[C@@H]3O[C@H]1C[C@@H]2NCO[C@@H]2[C@H](C)O1 [Doxaz, Doxazolidine]",IC50,"MCF-7; MCF7, 3 h, read-out: Growth inhibition IC50, MCF-7, 3 h",0.00316 µM
same,IC50,"MCF-7; MCF7, read-out: IC50 MCF-7",0.003 ± 0.0002 µM
same,IC50,MCF-7/Adr; [2],0.00316 µM
same,IC50,MCF-7/Adr; read-out: IC50 MCF-7/Adr,0.003 ± 0.0002 µM
same,IC50,MCF-7/Adr; [1],~0.002 µM
same,IC50,"MDA-MB-435; MDA-MB-435, 3 h drug treatment, growth at 5 days, read-out: IC50 MDA-MB-435",0.007 ± 0.0003 µM
same,IC50,"DU-145; DU-145, read-out: IC50 DU-145",0.004 ± 0.0006 µM
same,IC50,SK-HEP-1; [3],0.00398 µM
same,IC50,Hep G2; [4],0.01 µM
same,IC50,Vero cells; [5],0.00631 µM
same,IC50,Vero cells; [6],0.00794 µM
same,More toxic than Doxorubicin to multidrug-resistant cancer cells,cancer cells; variety of multidrug-resistant cancer cells,"500-10,000 fold"
same,Drug uptake relative to Doxorubicin,MCF-7/Adr cells,significantly more
"COc1cccc2c1C(=O)c1c(O)c3c(c(O)c1C2=O)C[C@@](O)(C(=O)CO)C[C@@H]3O[C@H]1C[C@H](N)[C@H](O)[C@H](C)O1 [Doxorubicin, reference compound]",IC50,"MCF-7; MCF7, 3 h, read-out: Growth inhibition IC50, MCF-7, 3 h, 3 h drug treatment, crystal violet",0.316 µM
same,IC50,"MCF-7; MCF7, 3 h, read-out: IC50 MCF-7 + plasmin, + plasmin (15 μg/ml)",0.3 µM
same,IC50,"MCF-7; MCF7, 24 h, read-out: Growth inhibition IC50, MCF-7, 24 h, 24 h drug treatment, crystal violet",0.0126 µM
same,IC50,"MCF-7; MCF7, read-out: IC50 MCF-7, 3 h drug treatment, growth at 5 days",0.2 ± 0.026 µM
same,IC50,"MCF-7; MCF7, read-out: IC50 MCF-7, no plasmin or aprotinin added",0.3 µM
same,IC50,MCF-7/Adr; [2],6.31 µM
same,IC50,MCF-7/Adr; [7],20 µM
same,IC50,"MCF-7/Adr; 24 h, read-out: Growth inhibition IC50, MCF-7/Adr, 24 h",2.51 µM
same,IC50,MCF-7/Adr; read-out: IC50 MCF-7/Adr,10 µM
same,IC50,"MDA-MB-435; MDA-MB-435, read-out: IC50 MDA-MB-435",0.15 ± 0.014 µM
same,IC50,MDA-MB-435; [8],0.15 µM
same,IC50,"DU-145; DU-145, 24 h, read-out: Cell growth inhibition IC50, DU-145",0.0316 µM
same,IC50,"DU-145; DU-145, read-out: IC50 DU-145",0.24 µM
same,IC50,DU-145; [9],0.3 µM
same,IC50,SK-HEP-1; [3],0.1 µM
same,IC50,"SK-HEP-1; 24 h drug treatment, crystal violet, read-out: Growth inhibition IC50, SK-HEP-1, 24 h (converted)",0.0501 µM
same,IC50,Hep G2; [4],0.2 µM
same,IC50,"Hep G2; 24 h drug treatment, crystal violet, read-out: Growth inhibition IC50, Hep G2, 24 h (converted)",0.0316 µM
same,IC50,Vero cells; [5],1 µM
same,IC50,Vero cells; [6],0.501 µM
same,Effect of added plasmin on activity,cancer cells; 0.01 unit/mL of plasmin,no effect
"COc1cccc2c1C(=O)c1c(O)c3c(c(O)c1C2=O)C[C@@](O)(C(=O)CO)C[C@@H]3O[C@H]1C[C@H]2[C@H](OCN2C(=O)OCc2ccc(NC(=O)[C@H](CCCCN)NC(=O)[C@H](Cc3ccccc3)NC(=O)[C@@H](C)N)cc2)[C@H](C)O1 [Formula IV, D-Ala-L-Phe-L-Lys-p-aminobenzyloxycarbonyl-Doxaz]",IC50,"MCF-7; MCF7, 3 h, read-out: IC50 MCF-7 + plasmin",0.005 µM
same,IC50,"MCF-7; MCF7, read-out: IC50 MCF-7",0.05 µM
same,IC50,MCF-7/Adr; [7],0.01 µM
same,IC50,MCF-7/Adr; read-out: IC50 MCF-7/Adr,0.1 µM
same,IC50,MDA-MB-435; [8],0.24 µM
same,IC50,"MDA-MB-435; MDA-MB-435, + plasmin, second stacked value, read-out: IC50 MDA-MB-435 + plasmin",0.04 µM
same,IC50,"DU-145; DU-145, read-out: IC50 DU-145 + plasmin",0.006 µM
same,IC50,DU-145; [9],0.16 µM
same,Increase of activity on addition of plasminogen,"cancer cells; 0.01 unit/mL plasminogen, on average",0.3 log
same,Growth inhibition better than aFK-PABA-Dox,"cancer cells; most of the cancer cells, 3 h treatment",≥ 0.5 log
same,IC50,cancer cells; read-out: Cancer cell growth inhibition IC50 in the presence of plasmin,0.005 µM
"CCCCCOC(=O)Nc1ccc(COC(=O)N2COC3C(C)OC(OC4CC(O)(C(=O)CO)Cc5c(O)c6c(c(O)c54)C(=O)c4c(OC)cccc4C6=O)CC32)cc1 (centres unmarked) [Pentyl PABC-Doxaz, Pentyl 4-(N-doxazolidinylcarbonyloxymethyl)phenylcarbamate]","Growth inhibition IC50, MCF-7, 24 h",MCF-7; [10],−5.6 ± 0.3 log of the molar concentration
same,"Growth inhibition IC50, MCF-7/Adr, 24 h",MCF-7/Adr; [10],−6.5 ± 0.06 log of the molar concentration
same,"Cell growth inhibition IC50, DU-145",DU-145; [10],−6.7 ± 0.07 log of molar concentrations
same,"Growth inhibition IC50, SK-HEP-1, 24 h",SK-HEP-1; [10],−6.0 ± 0.06 log of the molar concentration
same,"Growth inhibition IC50, Hep G2, 24 h",Hep G2; [10],−7.3 ± 0.2 log of the molar concentration
same,"Growth inhibition IC50, Vero, 24 h",Vero cells; 24 h drug treatment,−6.0 ± 0.04 log of the molar concentration
same,"Uptake relative to Dox, MCF-7/Adr",MCF-7/Adr cells; in the presence of fetal bovine serum,taken up much better
